In the case of `CN1CCN(c2cccc3c2C[C@H](NC(=O)c2ccc(F)cc2)CC3)CC1` [Example 72, (R)-N-[8-(4-Methylpiperazin-1-yl)-1,2,3,4-tetrahydro-2-naphthyl]-4-fluorobenzamide], the melting point (as a rule, the temperature of the solid-liquid transition) is 189 to 190 °C.
The compound `CN1CCN(c2cccc3c2C[C@H](NC(=O)c2ccc(N4CCOCC4)cc2)CC3)CC1` [Example 54, (R)-N-[8-(4-Methylpiperazin-1-yl)-1,2,3,4-tetrahydro-2-naphthyl]-4-morpholinobenzamide] registered a melting point of 230 to 231 °C.
Next, `CCCCN1CCN(c2cccc3c2C[C@H](NC(C)=O)CC3)CC1` [Example 27, (R)-N-[8-(4-Butylpiperazin-1-yl)-1,2,3,4-tetrahydro-2-naphthyl]acetamide]: 118 to 120 °C; `CCc1ccc(-c2ccc(C(=O)N[C@@H]3CCc4cccc(N5CCN(C)CC5)c4C3)cc2)cc1` [Example 84, (R)-N-[8-(4-Methylpiperazin-1-yl)-1,2,3,4-tetrahydro-2-naphthyl]-4-(4-ethylphenyl)benzamide]: 234 to 235 °C; `CN1CCN(c2cccc3c2C[C@H](NC(=O)c2ccc(C#N)cc2)CC3)CC1` [Example 50, (R)-N-[8-(4-Methylpiperazin-1-yl)-1,2,3,4-tetrahydro-2-naphthyl]-4-cyanobenzamide]: 184 to 186 °C.
Next, `CCCCCCN1CCN(c2cccc3c2C[C@H](NC(C)=O)CC3)CC1` [Example 33, (R)-N-[8-(4-Hexylpiperazin-1-yl)-1,2,3,4-tetrahydro-2-naphthyl]acetamide]: 117 to 118 °C; `CN1CCN(c2cccc3c2C[C@H](NC(=O)c2ccc(C(=O)c4ccccc4)cc2)CC3)CC1` [Example 76, (R)-N-[8-(4-Methylpiperazin-1-yl)-1,2,3,4-tetrahydro-2-naphthyl]-4-benzoylbenzamide]: 194 to 195 °C; `CN1CCN(c2cccc3c2CC[C@@H](NC(=O)c2ccc(N4CCOCC4)cc2)C3)CC1` [Example 118, (R)-N-[5-(4-Methylpiperazin-1-yl)-1,2,3,4-tetrahydro-2-naphthyl]-4-morpholinobenzamide]: 127 to 128 °C.
For the compound `CCCN1CCN(c2cccc3c2C[C@H](NC(C)=O)CC3)CC1` [Example 24, (R)-N-[8-(4-Propylpiperazin-1-yl)-1,2,3,4-tetrahydro-2-naphthyl]acetamide], the melting point is 139 to 140 °C.
Next, `CN1CCN(c2cccc3c2C[C@H](NC(=O)C2CCCCC2)CC3)CC1` [Example 36, (R)-N-[8-(4-Methylpiperazin-1-yl)-1,2,3,4-tetrahydro-2-naphthyl]cyclohexanecarboxamide]: 183 to 184 °C.
Compound `CCCCOc1ccc(C(=O)N[C@@H]2CCc3cccc(N4CCN(C)CC4)c3C2)cc1` [Example 70, (R)-N-[8-(4-Methylpiperazin-1-yl)-1,2,3,4-tetrahydro-2-naphthyl]-4-butoxybenzamide] came in with a melting point of 190 to 191 °C.
`CN1CCN(c2cccc3c2C[C@H](NC(=O)CCCc2ccccc2)CC3)CC1` [Example 82, (R)-N-[8-(4-Methylpiperazin-1-yl)-1,2,3,4-tetrahydro-2-naphthyl]-4-phenylbutanamide] displayed a melting point of 137 to 139 °C.
In turn, `CN1CCC(c2cccc3c2C[C@H](NC(=O)c2ccc(N4CCOCC4)cc2)CC3)CC1` [Example 101, (R)-N-[8-(1-Methylpiperidin-4-yl)-1,2,3,4-tetrahydro-2-naphthyl]-4-morpholinobenzamide] returned a melting point of 196 to 198 °C.
`CN1CCN(c2cccc3c2C[C@H](NC(=O)c2ccc(-n4cccc4)cc2)CC3)CC1` [Example 78, (R)-N-[8-(4-Methylpiperazin-1-yl)-1,2,3,4-tetrahydro-2-naphthyl]-4-(1H-pyrrol-1-yl)benzamide] returned a melting point of 245 to 247 °C.
Next, `COc1ccc(C(=O)N[C@@H]2CCc3cccc(N4CCN(C)CC4)c3C2)cc1` [Example 49, (R)-N-[8-(4-Methylpiperazin-1-yl)-1,2,3,4-tetrahydro-2-naphthyl]-4-methoxybenzamide]: 186 to 187 °C; `CN1CCN(c2cccc3c2C[C@H](NC(=O)c2ccccc2)CC3)CC1` [Example 48, (R)-N-[8-(4-Methylpiperazin-1-yl)-1,2,3,4-tetrahydro-2-naphthyl]benzamide]: 195 to 196 °C; `CN1CCN(c2cccc3c2C[C@H](NC(=O)c2ccc(OS(C)(=O)=O)cc2)CC3)CC1` [Example 67, (R)-N-[8-(4-Methylpiperazin-1-yl)-1,2,3,4-tetrahydro-2-naphthyl]-4-methylsulfonyloxybenzamide]: 199 to 200 °C.
In turn, `CCN1CCN(c2cccc3c2C[C@H](NC(C)=O)CC3)CC1` had a melting point of 142 to 143 °C.
`CN1CCN(c2cccc3c2C[C@H](NC(=O)c2ccc(C(=O)N4CCOCC4)cc2)CC3)CC1` [Example 129, (R)-N-[8-(4-Methylpiperazin-1-yl)-1,2,3,4-tetrahydro-2-naphthyl]-4-morpholinocarbonylbenzamide] showed a melting point of 124 to 127 °C.
`CN1CCN(c2cccc3c2C[C@H](NC(=O)c2ccc(-c4ccc(O)cc4)cc2)CC3)CC1` [Example 85, (R)-N-[8-(4-Methylpiperazin-1-yl)-1,2,3,4-tetrahydro-2-naphthyl]-4-(4-hydroxyphenyl)benzamide] registered a melting point of 261 to 262 °C.
`CN1CCN(c2cccc3c2C[C@H](NC(=O)c2csc(-c4ccccc4)n2)CC3)CC1` [Example 46, (R)-N-[8-(4-Methylpiperazin-1-yl)-1,2,3,4-tetrahydro-2-naphthyl]-2-phenylthiazole-4-carboxamide] displayed a melting point of 175 to 176 °C.
`CCc1ccc(C(=O)N[C@@H]2CCc3cccc(N4CCN(C)CC4)c3C2)cc1` [Example 69, (R)-N-[8-(4-Methylpiperazin-1-yl)-1,2,3,4-tetrahydro-2-naphthyl]-4-ethylbenzamide] gave a melting point of 177 to 178 °C.
Regarding `CN1CCN(c2cccc3c2C[C@H](NC(=O)C(F)(F)F)CC3)CC1`, the melting point was in the range of 158 to 159 °C.
As to `CN1CCN(c2cccc3c2C[C@H](NC(=O)c2ccccc2O)CC3)CC1` [Example 92, (R)-N-[8-(4-Methylpiperazin-1-yl)-1,2,3,4-tetrahydro-2-naphthyl]-2-hydroxybenzamide], the melting point was 87 °C (dec.).

Values taken from patent publication US6410530B1, “Substituted 1,2,3,4-tetrahydronaphthalene derivatives” (AstraZeneca AB, priority 1996, dated 2002).
